In series [1] the test system is calcium level in serum. Conditions: patients suffering from hypocalcemia; cited from earlier work.
Series [2] concerns magnesium level in serum. Conditions: thyroidectomized and parathyroidectomized rats, administered once; cited from earlier work.
The test system of series [3] is calcium level in serum. Conditions: dog with hyper-parathyreosis, thyroid arterial route; cited from earlier work.
The subject of series [4] is calcium level in serum. Conditions: normal person, 250 micrograms oral; cited from earlier work.
Series [5] deals with magnesium level in serum. Conditions: bilateral nephrectomy rats; cited from earlier work.
Series [6] relates to tumour. Description: Anti-tumour experiments using mouse and rat as the host. The series is classed as in vivo.
Series [7] relates to blood sugar level. Nature of the series: Blood sugar in patients (Example 23). It counts as in vivo, human. Conditions: patients suffering from glycosuria. How it is done:
Three patients shown in Table 17 were treated by oral administration of a daily dose of 4 to 6 micrograms of 24R,25-(OH)2 -D3 in a form of the soft capsule composition obtained in Example 6 for 3 continuous weeks. After the completion of administration, the patient was fasted for a night and their blood specimen was collected at 11:00 a.m. in the next morning.
Effectiveness of reducing blood sugar level (ERBS) is calculated from the […]

Series [8] relates to calcium level in serum. Conditions: healthy dog, continuous injection 20 min into thyroid artery; cited from earlier work.
Series [9] in a line: 30-day repeated oral administration toxicity (Example 26). It counts as in vivo, ICR mouse. Conditions: 1 mg/kg/day, 30 days. As to the method: 24R,25-(OH)2 -D3 was dissolved in Panacete® 810 containing 1% by weight of ethanol, and the solution was forcibly p.o. administered once a day for 30 continuous days to each male or female ICR mouse of the groups shown in Table 20 at each one of the daily dose rates also shown in Table 20.
As the control, Panacete 810 was solely and forcibly p.o. administered to the mice of the same strain once a day for 30 continuous days.

Here are results for one compound from US4442093A, “Method for administering 24,25-dihydroxycholecalciferol to persons suffering from hypercalcemia” (Kureha Kagaku Kogyo Kabushiki Kaisha, priority 1981, dated 1984).

Each structure is given as a SMILES string. Read-outs that look alike come from different tables or passages of the source.

As to `C=C1CC[C@H](O)C/C1=C/C=C1\CCC[C@]2(C)[C@@H]([C@H](C)CCC(O)C(C)(C)O)CC[C@@H]12` (stereo partly shown) [24,25-(OH)2 -D3, 24,25-dihydroxycholecalciferol], the “Calcium level in serum” value is “non of them reported the case where the calcium level in the patient's serum showed a significant change” in series [1], “did not change the dog's calcium level in serum” in [3], “did not cause the significant change of calcium level” in series [4] and “showed a temporary reduction” in [8]. In addition, the magnesium clearance result in [2] was “did not affect the magnesium level in serum thereof and the magnesium clearance thereof”. Further, the “magnesium level in serum” value is “did not affect the magnesium level in serum” in series [2] and “did not affect significantly the magnesium level in serum” in series [5]. Further, in [6], the “anti-tumour effect in vivo” value is on record as “anti-tumour effect of the compound was confirmed”. Also, the blood sugar level entry in [7] was “significant reduction of the blood sugar level was observed”. Further, in [9], the “biochemical examination of the blood and autopsy” value was “any significant abnormal findings were not observed”.
